Results reported in patent US8623844B2, “Fosaprepitant dimeglumine intermediate, neutral fosaprepitant, and amorphous fosaprepitant dimeglumine and processes for their preparations” (priority 2008, dated 2014).

Assays:
[1] = Stability studies of amorphous form, series of XRPD spectra (FIG. 7); format: physicochemical; conditions: about 2° C. to about 8° C., relative humidity less than about 60%, about 7 days to about 2 months
Description: The diffractogram was obtained using a Powder X-ray Diffractometer (Philips X'Pert Pro, PANalytical®) with a Cu radiation of λ=1.540598Å. The measurements were carried out from 2 degrees to 50 degrees with times per step of 50 seconds.
The stability data, shown as series of XRPD scans, are substantially in accordance with FIG. 7.

[2] = cited from earlier work

Structure (SMILES) | stability of amorphous polymorphic form (XRPD) [1] | degradation on storage ([2]; normal ambient temperatures, stored at −20° C. to avoid degradation, J. Med. Chem. 2000, 43, 1234-1241) | stability of amorphous form on exposure ([2]; normal room temperature, as well as about 2° C.-8° C., transforms into crystalline form)
CNC[C@H](O)[C@@H](O)[C@H](O)[C@H](O)CO.CNC[C@H](O)[C@@H](O)[C@H](O)[C@H](O)CO.C[C@@H](O[C@H]1OCCN(Cc2nc(=O)n(P(=O)(O)O)[nH]2)[C@H]1c1ccc(F)cc1)c1cc(C(F)(F)F)cc(C(F)(F)F)c1 [amorphous fosaprepitant dimeglumine, 1-deoxy-1-(methylamino)-D-glucitol[3-[[(2R,3S)-2-[(1R)-1-[3,5-bis(trifluoromethyl)phenyl]-ethoxy]-3-(4-fluorophenyl)-4-morpholinyl]methyl]-2,5-dihydro-5-oxo-1H-1,2,4-triazol-1-yl]phosphonate (2:1) (salt)] | substantially stable |  | 
CNC[C@H](O)[C@@H](O)[C@H](O)[C@H](O)CO.CNC[C@H](O)[C@@H](O)[C@H](O)[C@H](O)CO.C[C@@H](O[C@H]1OCCN(Cc2nn(P(=O)(O)O)c(=O)[nH]2)[C@H]1c1ccc(F)cc1)c1cc(C(F)(F)F)cc(C(F)(F)F)c1 |  | degrades at normal ambient temperatures | loses its stability
